Test system: not given
Details: not given

| Compound | melting point |
| --- | --- |
| N#Cc1ccccc1NCc1nc2ccc(F)cc2c(=O)n1-c1cccnc1Cl | 183 to 187 °C |
| O=c1c2cc(F)ccc2nc(CNCc2ccccc2F)n1-c1ccccc1Cl | 140 °C |
| N#Cc1cccnc1NCc1nc2ccc(F)cc2c(=O)n1-c1ccccc1Cl | 145 to 150 °C |
| O=c1c2cc(F)ccc2nc(CNc2ccccc2F)n1-c1cccnc1Cl | 180 to 182 °C |
| Cl.O=c1c2sccc2nc(CNc2cccc(CN3CCCC3)c2)n1-c1ccccc1Cl | 148 to 151 °C |
| N#Cc1cccc(NCc2nc3ccc(F)cc3c(=O)n2-c2ccccc2Cl)c1 | 225 to 228 °C |
| O=c1c2cc(F)ccc2nc(CNc2ncccn2)n1-c1ccccc1Cl | 182 to 185 °C |
| Cc1cccc(NCc2nc3ccc(F)cc3c(=O)n2-c2cccnc2Cl)n1 | 190 to 195 °C |
| Cl.O=c1c2cc(F)ccc2nc(CNc2ccccn2)n1-c1ccccc1Cl | 90 to 100 °C |
| O=c1c2cc(F)ccc2nc(CNc2cccc(CN3CCCC3)c2)n1-c1ccccc1Cl [Example 12, 3-(2-Chloro-phenyl)-6-fluoro-2-[(3-pyrrolidin-1-ylmethyl-phenylamino)-methyl]-3H-quinazolin-4-one] | 105 to 110 °C |
| O=c1c2sccc2nc(CNc2ccccc2F)n1-c1ccccc1Cl [Example 17, 3-(2-Chloro-phenyl)-2-[(2-fluoro-phenylamino)-methyl]-3H-thieno[3,2-d]pyrimidin-4-one] | 175 to 176 °C |

Test system: global and focal ischemic damage
Details: focal and global ischemia models; reported in literature; cited from earlier work

| Compound | prevention of global and focal ischemic damage |
| --- | --- |
| NS(=O)(=O)c1cccc2c1c([N+](=O)[O-])cc1nc(O)c(O)nc12 [NBOX, 2,3-dihydroxy-6-nitro-7-sulfamoylbenzo[f-]quinoxaline] | effective in preventing global and focal ischemic damage |

Test system: rat global ischemia models
Details: reported in literature; cited from earlier work

| Compound | neuroprotection in rat global ischemia models |
| --- | --- |
| CC1=NN=C(c2ccc(N)cc2)c2cc3c(cc2C1)OCO3 [GKYI 52466] | effective neuroprotective agent |

Reference: patent US6921764B2, “Thieno-pyrimidin-4-one AMPA antagonists” (Pfizer Inc., priority 1997, dated 2005)
